Laboratory results as given in article PMC9667777, “A fragment-based approach leading to the discovery of inhibitors of CK2α with a novel mechanism of action” (RSC Medicinal Chemistry, 2022).
Where “and” joins values, the source holds several entries; their conditions need not be identical. Identical values can stand only once. Like-named read-outs stand apart in the source and are kept apart here.

Key:
[1] = system: HCT116 cells; conditions: read-out: GI50 HCT116; 72 hours; mean ± SEM from three experiments run in triplicate
[2] = system: HCT116 cells; assay: cells; conditions: Homo sapiens, HCT-116, 72 h, read-out: GI50 HCT116, 72 hours; mean ± SEM from three experiments run in triplicate
[3] = biological target: T1, CK2α (Homo sapiens, UniProt P68400); assay: biochemical; conditions: for inhibition at 500 µM: read-out: % inhibition at 500 μM; for inhibition at 1000 µM: read-out: % inhibition at 1 mM; for inhibition at 50 µM: read-out: % inhibition at 50 μM
T1 sequence (P68400 whole entry): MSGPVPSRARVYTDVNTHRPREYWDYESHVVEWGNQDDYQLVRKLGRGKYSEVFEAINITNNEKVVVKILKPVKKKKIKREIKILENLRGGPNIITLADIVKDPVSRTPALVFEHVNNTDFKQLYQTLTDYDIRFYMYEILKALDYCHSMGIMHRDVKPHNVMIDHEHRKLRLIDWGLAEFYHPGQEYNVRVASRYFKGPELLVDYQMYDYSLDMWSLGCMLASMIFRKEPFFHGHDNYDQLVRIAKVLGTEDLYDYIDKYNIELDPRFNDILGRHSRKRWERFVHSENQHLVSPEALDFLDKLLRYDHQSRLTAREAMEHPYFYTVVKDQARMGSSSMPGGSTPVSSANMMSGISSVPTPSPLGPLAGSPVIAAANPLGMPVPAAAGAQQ

[4] = biological target: T1, CK2α
[5] = system: CK2α-dependent phosphorylation of AKT1 Ser129 and CDC37 Ser13; conditions: HCT116 cells
[6] = biological target: T1, CK2α; remark: listed apart in the source
[7] = system: Jurkat cells; assay: cells; conditions: Homo sapiens, 72 h, read-out: GI50 Jurkat
[8] = system: A549 cells; assay: cells; conditions: Homo sapiens, 72 h, read-out: GI50 A459

Row | SMILES | Ligand efficiency [4] | inhibition at 50 µM [3] | further results
1 | O=C(O)c1ccc2c(c1)nc(Nc1cccc(Cl)c1)c1ccncc12 [CX4945, reference compound] |  |  | GI50 [1]: 4 µM; GI50 [2]: 4.8 µM
2 | Brc1ccc2[nH]ccc2c1 [Compound 3] |  |  | inhibition at 500 µM [3]: 22 ± 5%; inhibition at 1000 µM [3]: 50 ± 13%
3 | Clc1cc2[nH]ccc2cc1Br [Compound 6] | 0.44 and 0.44 kJ mol^−1 |  | inhibition at 500 µM [3]: 93 ± 5%
4 | Brc1ccc2[nH]ncc2c1 [Compound 7] | 0.47 and 0.47 kJ mol^−1 |  | inhibition at 500 µM [3]: 66 ± 5%; inhibition at 1000 µM [3]: 84 ± 6%
5 | N#CCc1c[nH]c2ccc(Br)cc12 [Compound 8] | 0.44 and 0.44 kcal mol-1 and 0.44 kJ mol^−1 | 32 ± 7% | inhibition of CK2α-dependent phosphorylation of Ser129 in AKT1 ([5]; twice the GI50 (170 μM), 24, 48 or 72 hours): good inhibition; inhibition of phosphorylation of Ser13 in CDC37 ([5]; twice the GI50 (170 μM), 48 h): significantly inhibited; binding to CK2α by CPMG signal ([6]; 500 μM compound + 7 μM CK2α): binds to CK2α; binding to CK2α in the presence of CX4945 ([6]; 500 μM compound + 50 μM CX4945 + 7 μM CK2α): significantly reduced; binding to CK2α in the presence of αD-binder ([6]; 500 μM compound + 500 μM αD-binder + 7 μM CK2α): largely inhibited; GI50 [2]: 88 ± 7 µM; GI50 [7]: 55 ± 2 µM; GI50 [8]: 29 ± 7 µM; inhibition at 500 µM [3]: 87 ± 11%; inhibition at 1000 µM [3]: 105 ± 9%
6 | N#CCc1c[nH]c2cc(Cl)c(Br)cc12 [Compound 9] |  | 103 ± 6% | 
7 | N#CCc1n[nH]c2ccc(Br)cc12 [Compound 10] |  | 97 ± 3% | 
8 | N#CCc1c[nH]c2ccc(C(F)(F)F)cc12 [Compound 14] |  | 39 ± 10% | 
9 | N#CCc1c[nH]c2cc(Br)c(Br)cc12 [Compound 15] |  | 65 ± 10% | 
10 | N#CCc1n[nH]c2cc(Br)c(Br)cc12 [Compound 16] | 0.53 kcal/mol | 95 ± 4% | 
11 | N#CCc1n[nH]c2cc(Cl)c(Br)cc12 [Compound 17] | 0.52 kcal/mol | 98 ± 3% | 
12 | Brc1ccc2[nH]cc(Cc3nccs3)c2c1 [Compound 18] |  | 13 ± 4% | 
13 | Brc1ccc2[nH]cc(Cc3ccc[nH]3)c2c1 [Compound 20] |  | 8 ± 3% | 
14 | CCCc1cn(Cc2c[nH]c3ccc(Br)cc23)nn1 [Compound 21] |  | 11 ± 6% | 
15 | CNCc1c[nH]c2ccc(Br)cc12 [Compound 22] |  | 21 ± 5% | 
16 | N=C(Cc1c[nH]c2ccc(Br)cc12)NO [Compound 23] |  | 13 ± 5% | 
